{
  "source": "patent US20100105674A1",
  "about": "“Chemical Compounds” (priority 2007, published 2010)",
  "data": [
    {"target": "T1, Wee1 (Homo sapiens, UniProt P30291)", "T1 construct": "endogenous in cells; host or cells: HeLa", "T1 sequence (P30291 whole entry)": "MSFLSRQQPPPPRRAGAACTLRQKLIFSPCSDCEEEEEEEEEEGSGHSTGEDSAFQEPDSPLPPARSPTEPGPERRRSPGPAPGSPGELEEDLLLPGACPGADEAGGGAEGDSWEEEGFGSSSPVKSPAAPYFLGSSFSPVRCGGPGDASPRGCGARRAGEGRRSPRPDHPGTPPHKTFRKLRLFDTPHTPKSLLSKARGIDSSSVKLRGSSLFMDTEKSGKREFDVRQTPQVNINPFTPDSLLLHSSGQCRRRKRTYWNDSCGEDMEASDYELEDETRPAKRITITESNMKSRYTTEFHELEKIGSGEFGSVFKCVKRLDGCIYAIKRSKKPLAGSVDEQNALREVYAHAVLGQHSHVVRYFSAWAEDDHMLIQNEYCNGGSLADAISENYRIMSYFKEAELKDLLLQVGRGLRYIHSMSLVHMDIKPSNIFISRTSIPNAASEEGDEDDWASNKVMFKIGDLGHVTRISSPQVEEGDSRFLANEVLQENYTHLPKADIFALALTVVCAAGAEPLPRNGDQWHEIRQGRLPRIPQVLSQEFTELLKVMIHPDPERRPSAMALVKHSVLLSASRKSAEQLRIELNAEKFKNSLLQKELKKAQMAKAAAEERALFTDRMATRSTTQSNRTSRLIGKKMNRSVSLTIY", "assay": "Cell assay for Wee1 inhibitory activity (cell-based ELISA, phospho-cdc2(Tyr15))", "conditions": "Hela cells synchronized using aphidicolin; phosphorylation level of cdc2 (Tyr15) by sandwich ELISA", "description": "Cell Assay for Wee1 Inhibitory Activity\nWee1 inhibitory activity can be measured using a cell-based ELISA assay. Hela cells are synchronized using aphidicolin, which blocks the entry of cells into S-phase. Cells in G2-M transition phase are then obtained by releasing the cells from aphidicolin treatment for approximately 7-9 hrs. The phosphorylation level of the Wee1 target cdc2 may then be measured by sandwich ELISA using an anti-cdc2 antibody and an anti-phospho-cdc2(Tyr15) antibody. This cell assay was used to calculate a pIC50 for the compounds described in Examples 2, 3, and 19.", "units": {"IC50": "µM"}, "values": [
      {"smiles": "COc1ccccc1Nc1nc(Nc2cccc(OCCN(C)C)c2)ncc1Br", "note": "[Example 19, 5-bromo-N^2-(3-{[2-(dimethylamino)ethyl]oxy}phenyl)-N^4-[2-(methyloxy)phenyl]-2,4-pyrimidinediamine]", "IC50": "≤ 10"},
      {"smiles": "CCN(CC)CCOc1ccc(Nc2ncc(Br)c(Nc3ccccc3OC)n2)cc1", "note": "[Example 2, 5-bromo-N^2-(4-{[2-(diethylamino)ethyl]oxy}phenyl)-N^4-[2-(methyloxy)phenyl]-2,4-pyrimidinediamine]", "IC50": "≤ 10"},
      {"smiles": "CCC(C)NC(=O)c1ccccc1Nc1nc(Nc2cccc(CCN3CCOCC3)c2)ncc1Br", "note": "(stereo not drawn) [Example 3, 2-{[5-bromo-2-({3-[2-(4-morpholinyl)ethyl]phenyl}amino)-4-pyrimidinyl]amino}-N-(1-methylpropyl)benzamide]", "IC50": "≤ 10"}
    ]}
  ]
}
